Structures can show the parent of a compound that is named as a salt.
How the values were obtained:
[1] = biological target: CXXC5-Dvl interaction (PDZ domain of Dvl (dishevelled) protein / PTD-DBM-FITC); assay: CXXC5-Dvl binding inhibition, competition of PTD-DBM-FITC on plate-bound Dvl PDZ domain; settings: purified Dvl PDZ domain 5 μg/mL, 10 μM PTD-DBM-FITC, compounds 0.001-100 μM, FITC fluorescence
Experimental: 5 μg/mL of the purified PDZ domain ofDvl (dishevelled) protein was attached to the bottom of a 96-well black immunoplate and left in a chamber at 4° C. for one day. The next day, each well was washed with PBS and 10 μM PTD-DBM-FITC was added. After incubation at room temperature for 3 hours, each well was washed with PBS. Each well was treated with the indoline derivatives at various concentrations (100, 10, 1, 0.1, 0.01, and 0.001 μM) in 100 μL of PBS. After washing with a buffer, fluorescence was measured by FITC using a microplate reader. A competition binding curve showing the degree of CXXC5-Dvl PPI inhibition was constructed using the GraphPad Prism software, and the IC50 value was calculated. […] CK090), and the intermediate compound 5-cyanoindirubin as controls.

3T3-L1 pre-adipocytes = assay: Inhibition of adipocyte differentiation and lipid accumulation, Oil Red O; type: cell-based; settings: 3T3-L1, compound 1 μM, MDI-induced differentiation for 8 days, Oil Red O eluted, absorbance 544 nm; for activity at 1 µM: Mus musculus, 192 h, read-out: lipid accumulation rate
Experimental: 3T3-L1 cells were seeded in a 6-well plate at a density of […] cells per well. The cells were grown to 100% confluency in Dulbecco's modified Eagle's medium (DMEM) supplemented with 10% bovine calf serum (BCS; GIBCO). Two days after reaching 100% confluency, differentiation was induced with or without treatment with the indoline compound at a concentration of 1 μM in DMEM containing 10% fetal bovine serum (FBS; GIBCO) and MDI (520 μM methylisobutylxanthine (IBMX; Sigma-Aldrich), 1 μM dexamethasone (Sigma-Aldrich), and 5 μM insulin (GIBCO)). On day 3, the medium was replaced with DMEM containing 10% FBS and 5 μM insulin with or without the indoline compound, and then with a fresh identical medium every 2 days. After differentiation for 8 days, the culture medium was removed, and the cells were washed with PBS and then fixed with 10% formaldehyde for 1 hour. After removing the 10% formaldehyde, the cells were washed thoroughly with distilled water. After that, 60% isopropanol was added and immediately then removed. After washing with distilled water, lipid droplets were stained with an Oil Red O dye solution for 20 minutes and then washed with distilled water. The cells were counterstained with Mayer's hematoxylin. Oil Red O images were visualized using a bright-field microscope (Nikon TE-2000U). To quantify the accumulated lipids, Oil Red O was eluted by adding isopropanol, and absorbance was measured spectrophotometrically at 544 nm using a multi-plate reader.
As A3051 (KY19382) and A3334, self-developed and synthesized materials were used. As BIO, or GSK 3 Inhibitor IX, also known as 6-bromoindirubin-3′-oxime, HY-10580 was purchased commercially.
In FIG. 2, the undifferentiated group (Un Diff) refers to undifferentiated adipocytes, or preadipocytes that had not been induced to differentiate, and the differentiated group (Diff) refers to fully differentiated adipocytes.

| SMILES | IC50 [1] | activity at 1 µM (3T3-L1 pre-adipocytes) | lipid accumulation rate (3T3-L1 pre-adipocytes) |
| --- | --- | --- | --- |
| N#Cc1ccc2c(c1)/C(=C1/Nc3ccccc3/C1=N\OCCCN1CCCC1)C(=O)N2 [Example 8, (2Z,3E)-2′-oxo-3-((3-(pyrrolidin-1-yl)propoxy)imino)-[2,3′-biindolinylidene]-5′-carbonitrile] | 17.2 nM | 25.1% | – |
| N#Cc1ccc2c(c1)/C(=C1/Nc3ccccc3/C1=N\OCCN1CCCC1)C(=O)N2 [Example 6, (2Z,3E)-2′-oxo-3-((2-(pyrrolidin-1-yl)ethoxy)imino)-[2,3′-biindolinylidene]-5′-carbonitrile] | 37 nM | 25.8% | – |
| N#Cc1ccc2c(c1)/C(=C1/Nc3ccccc3/C1=N\OCCN1CC[S+]([O-])CC1)C(=O)N2 [Example 14, (2Z,3E)-3-((2-(1-oxidothiomorpholino)ethoxy)imino)-2′-oxo-[2,3′-biindolinidene]-5′-carbonitrile hydrochloride] | 26.1 nM | 26.8% | – |
| N#Cc1ccc2c(c1)/C(=C1/Nc3ccccc3/C1=N\OCCN1CCCCC1)C(=O)N2 [Example 5, (2Z,3E)-2′-oxo-3-((2-(piperidin-1-yl)ethoxy)imino)-[2,3′-biindolinylidene]-5′-carbonitrile] | 9.29 nM | 26.2% | – |
| O=C1Nc2cc(Br)ccc2/C1=C1/Nc2ccccc2/C1=N\O [BIO, 6-bromoindirubin-3′-oxime, reference compound] | – | – | 79.4% |
| O=C1Nc2ccccc2/C1=C1/Nc2ccccc2C1=O [Indirubin, (Z)-[2,3′-biindolinylidene]-2′,3-dione, reference compound] | 53900 nM | 96.4% | – |
| CN1CCN(CCCO/N=C2/C(=C3/C(=O)Nc4ccc(C#N)cc43)Nc3ccccc32)CC1 [Example 11, (2Z,3E)-3-((3-(4-methylpiperazin-1-yl)propoxy)imino)-2′-oxo-[2,3′-biindolinylidene]-5′-carbonitrile] | 12.3 nM | 24.1% | – |
| N#Cc1ccc2c(c1)/C(=C1/Nc3ccccc3/C1=N\OCCCN1CCOCC1)C(=O)N2 [Example 10, (2Z,3E)-3-((3-morpholinopropoxy)imino)-2′-oxo-[2,3′-biindolinylidene]-5′-carbonitrile] | 12.7 nM | 24.3% | – |
| N#Cc1ccc2c(c1)/C(=C1/Nc3ccccc3/C1=N\OCCN1CCS(=O)(=O)CC1)C(=O)N2 [Example 13, (2Z,3E)-3-((2-(1,1-dioxidothiomorpholino)ethoxy)imino)-2′-oxo-[2,3′-biindolinidene]-5′-carbonitrile] | 2.65 nM | 26.6% | – |
| N#Cc1ccc2c(c1)/C(=C1/Nc3ccccc3/C1=N\OCCCN1CCCCC1)C(=O)N2 [Example 7, (2Z,3E)-2′-oxo-3-((3-(piperidin-1-yl)propoxy)imino)-[2,3′-biindolinylidene]-5′-carbonitrile] | 10.8 nM | 33.6% | – |
| N#Cc1ccc2c(c1)/C(=C1/Nc3ccccc3/C1=N\OCCN1CCCC1C(=O)O)C(=O)N2 (stereo not drawn) [Example 15, (2-((((2Z,3E)-5′-cyano-2′-oxo-[2,3′-biindolinidene]-3-ylidene)amino)oxy)ethyl)proline] | 45.2 nM | 24.8% | – |
| N#Cc1ccc2c(c1)/C(=C1/Nc3ccccc3/C1=N\OCCCN1CCNCC1)C(=O)N2 [Example 9, (2Z,3E)-2′-oxo-3-((3-(piperazin-1-yl)propoxy)imino)-[2,3′-biindolinylidene]-5′-carbonitrile] | 20.4 nM | 25.4% | – |
| COc1ccc2c(c1)/C(=C1/Nc3ccccc3/C1=N\O)C(=O)N2 [Example A3334, reference compound] | – | – | 78.7% |
| N#Cc1ccc2c(c1)/C(=C1/Nc3ccccc3/C1=N\OCCCN1CCSCC1)C(=O)N2 [Example 12, (2Z,3E)-2′-oxo-3-((3-thiomorpholinopropoxy)imino)-[2,3′-biindolinylidene]-5′-carbonitrile] | 6.26 nM | 27.4% | – |
| Cc1cc2c(cc1Cl)NC(=O)/C2=C1\Nc2ccccc2\C1=N/OCCN1CCN(C)CC1 [CK090, (2Z,3E)-6′-chloro-5′-methyl-3-((2-(4-methylpiperazin-1-yl)ethoxy)imino)-[2,3′-biindolinylidene]-2′-one, reference compound] | 4220 nM | – | – |

— patent publication US20260250247A1, “NOVEL INDOLINE DERIVATIVE AND USE THEREOF” (CK REGEON INC., priority 2023, published 2026)
